Test results as given in patent US20250049803A1, “COMBINATION OF A TASK1/3 CHANNEL BLOCKER WITH A NOREPINEPHRINE REUPTAKE INHIBITOR FOR THE TREATMENT OF SLEEP APNEA” (priority 2021, published 2025).
Each block holds one compound with its values, some of them ahead of it.

What was measured:
[1] = plasma concentrations of atomoxetine in the OSA pig model; assay type: in vivo, pigs; conditions: atomoxetine dose used in the combination (i.v. bolus 20 μg/kg + infusion 12.5 μg/kg/h), FIG. 3
[2] = tested on: upper airway collapsibility; experiment: pig model of obstructive sleep apnea (OSA): collapse of the upper respiratory tract under negative pressure; assay type: in vivo, German Landrace pigs; design: efficacy of the dose on upper airway collapsibility: dose or concentration left out as unconfirmed
Excerpt: The therapeutic potential of the combination of a TASK1/3 channel blocker with a norepinephrine reuptake inhibitor according to the present invention in sleep apnea can be assessed preclinically in a pig model of obstructive sleep apnea (OSA).
German Landrace pigs are used for the model. The pigs are anaesthetized and tracheotomized. Two tracheal cannulas are inserted into the trachea, one into the rostral part and the other into the caudal part of the trachea. Using a connection piece, the rostral cannula is connected to a tube to the negative pressure device and to the distal tracheal cannula. The distal tracheal cannula is additionally connected to a tube with an open end to atmosphere via a connection piece that served for free tracheal breathing, circumventing the upper airway. By appropriate opening and clamping of those tubes breathing can be switched from nasal breathing to breathing through the caudal tracheal cannula, circumventing the upper airway, and the (isolated) upper airway can be connected to the negative pressure device, causing airflow in the inspiratory direction.
At certain points in time, the collapsibility of the upper respiratory tract is tested by having the pig breathe via the caudal cannula and applying negative pressures of −50, −100 and −150 cm water head (cm H2O) to the upper respiratory tract. This causes the upper respiratory tract to collapse, which manifests itself in an interruption of the airflow and a pressure drop in the tube system. This test is conducted prior to the administration of the test substance and at certain intervals after the administration of the test substance. An appropriately effective test substance can prevent this collapse of the respiratory tract in the inspiratory phase.

[3] = atomoxetine i.v. bolus 20 μg/kg + infusion 12.5 μg/kg/h for four hours from 0 min, time 0 min (time of administration)
[4] = atomoxetine i.v. bolus 20 μg/kg + infusion 12.5 μg/kg/h for four hours from 0 min, time 10 min
[5] = atomoxetine i.v. bolus 20 μg/kg + infusion 12.5 μg/kg/h for four hours from 0 min, time 30 min
[6] = atomoxetine i.v. bolus 20 μg/kg + infusion 12.5 μg/kg/h for four hours from 0 min, time 60 min
[7] = atomoxetine i.v. bolus 20 μg/kg + infusion 12.5 μg/kg/h for four hours from 0 min, time 90 min (time of nasal application of TASK1/3 channel blocker)
[8] = intranasal 0.3 μg at 0 min, alone, time 0 min (time of administration)
[9] = intranasal 0.3 μg at 0 min, alone, time 10 min
[10] = intranasal 0.3 μg at 0 min, alone, time 30 min
[11] = intranasal 0.3 μg at 0 min, alone, time 60 min
[12] = intranasal 0.3 μg at 0 min, alone, time 90 min

plasma concentrations [1]: about 100 nM
SMILES: CNCC[C@@H](Oc1ccccc1C)c1ccccc1 [atomoxetine, Atomoxetine]
inhibition of upper airway collapsibility ([2]; atomoxetine alone, i.v. bolus 20 μg/kg + infusion 12.5 μg/kg/h, 30 min after bolus injection and start of infusion): inhibited only at a negative pressure of −50 and −100 cm head
inhibition of upper airway collapsibility ([2]; atomoxetine alone, i.v. bolus 20 μg/kg + infusion 12.5 μg/kg/h, 60 min after administration): inhibited only at a negative pressure of −50 cm head
upper airway collapsibility ([2]; atomoxetine alone, i.v. bolus 20 μg/kg + infusion 12.5 μg/kg/h, 90 min after bolus injection and start of infusion): induced at all negative pressures
time points at which upper airway collapsibility was inhibited at all three negative pressures of −50, −100 and −150 cm head (cm H2O) in all pigs ([2]; atomoxetine alone, i.v. bolus 20 μg/kg followed by infusion 12.5 μg/kg/h for four hours): at no time point
Percent pigs without collaps −50 cm H2O, % [2, 3]: 0%
Percent pigs without collaps −50 cm H2O, % [2, 4]: 67%
Percent pigs without collaps −50 cm H2O, % [2, 5]: 100%
Percent pigs without collaps −50 cm H2O, % [2, 6]: 100%
Percent pigs without collaps −50 cm H2O, % [2, 7]: 0%
Percent pigs without collaps −100 cm H2O, % [2, 3]: 0%
Percent pigs without collaps −100 cm H2O, % [2, 4]: 0%
Percent pigs without collaps −100 cm H2O, % [2, 5]: 100%
Percent pigs without collaps −100 cm H2O, % [2, 6]: 0%
Percent pigs without collaps −100 cm H2O, % [2, 7]: 0%
Percent pigs without collaps −150 cm H2O, % [2, 3]: 0%
Percent pigs without collaps −150 cm H2O, % [2, 4]: 0%
Percent pigs without collaps −150 cm H2O, % [2, 5]: 0%
Percent pigs without collaps −150 cm H2O, % [2, 6]: 0%
Percent pigs without collaps −150 cm H2O, % [2, 7]: 0%

SMILES: COc1ccc(Cl)c(C(=O)N2C3CCC2CN(Cc2c(-c4ccc(C(C)C)cc4)nc4ncccn24)C3)n1 [(3-Chloro-6-methoxypyridin-2-yl)(3-{[2-(4-isopropylphenyl)imidazo[1,2-a]pyrimidin-3-yl]methyl}-3,8-diazabicyclo[3.2.1]oct-8-yl)methanone]
efficacy of the dose on upper airway collapsibility ([2]; TASK1/TASK3 channel blocker alone): non effective dose
Percent pigs without collaps −50 cm H2O, % [2, 8]: 0%
Percent pigs without collaps −50 cm H2O, % [2, 9]: 33%
Percent pigs without collaps −50 cm H2O, % [2, 10]: 0%
Percent pigs without collaps −50 cm H2O, % [2, 11]: 0%
Percent pigs without collaps −50 cm H2O, % [2, 12]: 0%
Percent pigs without collaps −100 cm H2O, % [2, 8]: 0%
Percent pigs without collaps −100 cm H2O, % [2, 9]: 33%
Percent pigs without collaps −100 cm H2O, % [2, 10]: 0%
Percent pigs without collaps −100 cm H2O, % [2, 11]: 0%
Percent pigs without collaps −100 cm H2O, % [2, 12]: 0%
Percent pigs without collaps −150 cm H2O, % [2, 8]: 0%
Percent pigs without collaps −150 cm H2O, % [2, 9]: 0%
Percent pigs without collaps −150 cm H2O, % [2, 10]: 0%
Percent pigs without collaps −150 cm H2O, % [2, 11]: 0%
Percent pigs without collaps −150 cm H2O, % [2, 12]: 0%
